Test system: thrips (Frankliniella occidentalis)
Test: Example 1: powder adherence on thrips body
Assay type: in vivo
Details: mesh cage, Petri dish filled with powdery carrier
Text: From 250 individual thrips (Frankliniella occidentalis) sourced from the company Bionema Limited in Swansea, 50 were released in mesh cages where fresh flowers and green beans were growing, and which contained a Petri dish filled with one powdery carriers.

| Structure (SMILES) | fate of thrips after contact with the powder |
| --- | --- |
| O=C(CO)[C@@H](O)[C@H](O)[C@H](O)CO [fructose] | died thereafter |
| CCCCCCCCCCCCCCCCCC(=O)O [stearic acid] | died thereafter |
